The record followed here is patent publication US11186576B2, “Pyrazolo[1,5-A][1,3,5]triazine and pyrazolo[1,5-A]pyrimidine derivatives as CDK inhibitors” (Aurigene Discovery Technologies Limited, priority 2015, dated 2021).

In this assay the target is CDK7/CycH/MNAT1 (Homo sapiens (Human), UniProt P50613). Description: Biochemical assay for CDK7 (TR-FRET kinase assay). As to conditions: 60 min pre-incubation, 1 mM ATP; for inhibition at 10 µM: 10 μM compound, read-out: % inhibition @ 10 μM; for IC50: read-out: IC50. The method in brief: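 CDK7/CycH/MNAT1 (5 nM) was preincubated with compound for 60 min at room temperature, then reacted for 60 min with 100 nM ULight-MBP and 1 mM ATP in 1% DMSO. Irreversibility was probed with 20, 60 and 180 min preincubations.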
Background: In TR-FRET formats the signal depends on donor and acceptor labels being close together.

Sequence of CDK7/CycH/MNAT1 (P50613 whole entry): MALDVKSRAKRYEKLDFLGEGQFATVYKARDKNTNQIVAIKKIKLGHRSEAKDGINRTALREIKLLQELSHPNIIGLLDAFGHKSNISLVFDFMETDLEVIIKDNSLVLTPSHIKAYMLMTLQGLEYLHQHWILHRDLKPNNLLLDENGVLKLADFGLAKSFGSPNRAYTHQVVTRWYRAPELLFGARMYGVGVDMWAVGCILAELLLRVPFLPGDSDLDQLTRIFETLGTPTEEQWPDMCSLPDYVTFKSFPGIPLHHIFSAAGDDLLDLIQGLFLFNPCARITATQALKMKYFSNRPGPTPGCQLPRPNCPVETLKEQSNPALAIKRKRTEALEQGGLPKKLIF
Sequence of CDK7/CycH/MNAT1 (P51946 whole entry partner): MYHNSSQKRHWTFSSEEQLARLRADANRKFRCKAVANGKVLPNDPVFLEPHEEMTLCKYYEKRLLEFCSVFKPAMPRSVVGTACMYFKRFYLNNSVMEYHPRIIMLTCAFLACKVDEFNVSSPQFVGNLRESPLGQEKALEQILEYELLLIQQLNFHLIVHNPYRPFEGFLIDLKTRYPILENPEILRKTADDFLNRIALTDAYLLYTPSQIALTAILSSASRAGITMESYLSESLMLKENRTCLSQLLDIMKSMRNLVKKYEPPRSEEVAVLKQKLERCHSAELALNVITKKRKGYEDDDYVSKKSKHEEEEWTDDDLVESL
Sequence of CDK7/CycH/MNAT1 (P51948 whole entry partner): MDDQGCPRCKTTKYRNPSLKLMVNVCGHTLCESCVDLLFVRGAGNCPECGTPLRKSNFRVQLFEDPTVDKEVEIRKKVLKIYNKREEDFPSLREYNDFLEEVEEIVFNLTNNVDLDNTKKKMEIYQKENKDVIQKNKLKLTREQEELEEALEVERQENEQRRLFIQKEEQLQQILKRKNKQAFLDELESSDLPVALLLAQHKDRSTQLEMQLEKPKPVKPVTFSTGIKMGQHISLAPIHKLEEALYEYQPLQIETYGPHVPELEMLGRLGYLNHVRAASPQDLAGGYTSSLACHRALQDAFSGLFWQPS

For the molecule `C=CC(=O)N1CCC(C(=O)Nc2cc(F)cc(CNc3nc(NC4CCOCC4)nc4c(C(C)C)cnn34)c2)C1` (centres unmarked) [Compound 33, 1-acryloyl-N-(3-fluoro-5-(((8-isopropyl-2-((tetrahydro-2H-pyran-4-yl)amino)pyrazolo[1,5-a][1,3,5]triazin-4-yl)amino)methyl)phenyl)pyrrolidine-3-carboxamide], the inhibition at 10 µM worked out at 86% and the IC50 fell in the range of 300 to 1000 nM.

Consider `C=CC(=O)N1CCCCC1C(=O)Nc1cc(CNc2nc(NC3CCOCC3)nc3c(C(C)C)cnn23)ccc1F` (centres unmarked) [Compound 44, 1-acryloyl-N-(2-fluoro-5-(((8-isopropyl-2-((tetrahydro-2H-pyran-4-yl)amino)pyrazolo[1,5-a][1,3,5]triazin-4-yl)amino)methyl)phenyl)piperidine-2-carboxamide], for which the inhibition at 10 µM was 94% and the IC50 is < 300 nM. On the same counts, the results for `C=CC(=O)N1CCOCC1C(=O)Nc1cncc(CNc2nc(NC3CCOCC3)nc3c(C(C)C)cnn23)c1` (centres unmarked) [Compound 40, 4-acryloyl-N-(5-(((8-isopropyl-2-((tetrahydro-2H-pyran-4-yl)amino)pyrazolo[1,5-a][1,3,5]triazin-4-yl)amino)methyl)pyridin-3-yl)morpholine-3-carboxamide] are 99% and < 300 nM. On to `C=CC(=O)Nc1cccc(C(=O)Nc2cccc(CNc3nc(NC4CCOCC4)nc4c(C(C)C)cnn34)c2)c1` [Compound 47, 3-acrylamido-N-(3-(((8-isopropyl-2-((tetrahydro-2H-pyran-4-yl)amino)pyrazolo[1,5-a][1,3,5]triazin-4-yl)amino)methyl)phenyl)benzamide], for which the inhibition at 10 µM turned out to be 100% and the IC50 is < 300 nM.

As for `CC(C)c1cnn2c(NCc3cccc(NC(=O)/C=C/CN4CCOCC4)c3)nc(NC3CCOCC3)nc12` [Compound 51, (E)-N-(3-(((8-isopropyl-2-((tetrahydro-2H-pyran-4-yl)amino)pyrazolo[1,5-a][1,3,5]triazin-4-yl)amino)methyl)phenyl)-4-morpholinobut-2-enamide], the inhibition at 10 µM was 91% and the IC50 was in the range of 300 to 1000 nM.

In the case of `CCN1CCN(C/C=C/C(=O)Nc2cccc(CNc3nc(NC4CCOCC4)nc4c(C(C)C)cnn34)c2)CC1` [Compound 52, (E)-4-(4-ethylpiperazin-1-yl)-N-(3-(((8-isopropyl-2-((tetrahydro-2H-pyran-4-yl)amino)pyrazolo[1,5-a][1,3,5]triazin-4-yl)amino)methyl)phenyl)but-2-enamide], the inhibition at 10 µM worked out at 96%.

In the case of `C/C=C/C(=O)N1CCC1C(=O)Nc1cccc(CNc2nc(NC3CCOCC3)nc3c(C(C)C)cnn23)c1` (centres unmarked) [Compound 65, (E)-1-(but-2-enoyl)-N-(3-(((8-isopropyl-2-((tetrahydro-2H-pyran-4-yl)amino)pyrazolo[1,5-a][1,3,5]triazin-4-yl)amino)methyl)phenyl)azetidine-2-carboxamide], the inhibition at 10 µM was determined as 86% and the IC50 was > 1000 nM. Regarding `C=CC(=O)NC1CCCC(C(=O)Nc2cccc(CNc3nc(NC4CCOCC4)nc4c(C(C)C)cnn34)c2)C1` (centres unmarked) [Compound 22, 3-acrylamido-N-(3-(((8-isopropyl-2-((tetrahydro-2H-pyran-4-yl)amino)pyrazolo[1,5-a][1,3,5]triazin-4-yl)amino)methyl)phenyl)cyclohexane-1-carboxamide], the inhibition at 10 µM amounted to 98% and the IC50 is < 300 nM.

With `C=CC(=O)N[C@H]1CC[C@@H](C(=O)Nc2cccc(CNc3nc(OC4CCOC4)nc4c(C(C)C)cnn34)c2)CC1` (stereo partly drawn) [Compound 100, (1,4-cis)-4-acrylamido-N-(3-(((8-isopropyl-2-((tetrahydrofuran-3-yl)oxy)pyrazolo[1,5-a][1,3,5]triazin-4-yl)amino)methyl)phenyl)cyclohexane-1-carboxamide], the inhibition at 10 µM was 82% and the IC50 fell in the range of 300 to 1000 nM.

`C=CC(=O)N1CCCC(C(=O)Nc2cccc(C(C)Nc3nc(NC4CCOCC4)nc4c(C(C)C)cnn34)c2)C1` (centres unmarked) [Compound 45, 1-acryloyl-N-(3-(1-((8-isopropyl-2-((tetrahydro-2H-pyran-4-yl)amino)pyrazolo[1,5-a][1,3,5]triazin-4-yl)amino)ethyl)phenyl)piperidine-3-carboxamide]: the inhibition at 10 µM worked out at 73% and the 50% inhibitory concentration (IC50) is > 1000 nM. `C=CC(=O)Nc1cc(C(=O)Nc2cccc(CNc3nc(NC4CCOCC4)nc4c(C(C)C)cnn34)c2)ccc1C` [Compound 40A, 3-acrylamido-N-(3-(((8-isopropyl-2-((tetrahydro-2H-pyran-4-yl)amino)pyrazolo[1,5-a][1,3,5]triazin-4-yl)amino)methyl)phenyl)-4-methylbenzamide]: the 50% inhibitory concentration (IC50) was < 300 nM. As to `CC(C)c1cnn2c(NCc3ccccc3N3CCN(C(=O)/C=C/CN(C)C)CC3)nc(NC3CCOCC3)nc12` [Compound 137, (E)-4-(dimethylamino)-1-(4-(2-(((8-isopropyl-2-((tetrahydro-2H-pyran-4-yl)amino)pyrazolo[1,5-a][1,3,5]triazin-4-yl)amino)methyl)phenyl)piperazin-1-yl)but-2-en-1-one], the inhibition at 10 µM came out at 99% and the IC50 was < 300 nM. Regarding `C=CC(=O)N1CCCCC1C(=O)Nc1ccc(F)c(CNc2nc(NC3CCOCC3)nc3c(C(C)C)cnn23)c1` (centres unmarked) [Compound 37, 1-acryloyl-N-(4-fluoro-3-(((8-isopropyl-2-((tetrahydro-2H-pyran-4-yl)amino)pyrazolo[1,5-a][1,3,5]triazin-4-yl)amino)methyl)phenyl)piperidine-2-carboxamide], the inhibition at 10 µM worked out at 91% and the IC50 is < 300 nM.

As to `C=CC(=O)N[C@H]1CC[C@@H](C(=O)Nc2cccc(CNc3nc(N[C@H]4CC[C@H](O)CC4)nc4c(C(C)C)cnn34)c2)CC1` [Compound 9, (1,4-cis)-4-acrylamido-N-(3-(((2-(((1r,4r)-4-hydroxycyclohexyl)amino)-8-isopropylpyrazolo[1,5-a][1,3,5]triazin-4-yl)amino)methyl)phenyl)cyclohexane-1-carboxamide], the inhibition at 10 µM was found to be 85% and the IC50 is > 1000 nM. `CC(C)c1cnn2c(NCc3cccc(NC(=O)C4CCCCN4C(=O)/C=C/CN4CCCC4)c3)nc(NC3CCOCC3)nc12` (centres unmarked) [Compound 77, (E)-N-(3-(((8-isopropyl-2-((tetrahydro-2H-pyran-4-yl)amino)pyrazolo[1,5-a][1,3,5]triazin-4-yl)amino)methyl)phenyl)-1-(4-(pyrrolidin-1-yl)but-2-enoyl)piperidine-2-carboxamide]: the inhibition at 10 µM turned out to be 99% and the IC50 is < 300 nM. Turning to `CC(C)c1cnn2c(NCc3cccc(NC(=O)/C=C/CN4CCCC(F)C4)c3)nc(NC3CCOCC3)nc12` (centres unmarked) [Compound 58, (E)-4-(3-fluoropiperidin-1-yl)-N-(3-(((8-isopropyl-2-((tetrahydro-2H-pyran-4-yl)amino)pyrazolo[1,5-a][1,3,5]triazin-4-yl)amino)methyl)phenyl)but-2-enamide], the inhibition at 10 µM amounted to 96% and the IC50 was 300 to 1000 nM. Consider `C=CC(=O)N1CCOCC1C(=O)Nc1cccc(CNc2nc(OC3CCN(C)CC3)nc3c(C(C)C)cnn23)c1` (centres unmarked) [Compound 113, 4-acryloyl-N-(3-(((8-isopropyl-2-((1-methylpiperidin-4-yl)oxy)pyrazolo[1,5-a][1,3,5]triazin-4-yl)amino)methyl)phenyl)morpholine-3-carboxamide], for which the 50% inhibitory concentration (IC50) was < 300 nM. As to `C=CC(=O)NC(C)(C)C(=O)Nc1cccc(CNc2nc(NC3CCOCC3)nc3c(C(C)C)cnn23)c1` [Compound 82, N-(1-((3-(((8-isopropyl-2-((tetrahydro-2H-pyran-4-yl)amino)pyrazolo[1,5-a][1,3,5]triazin-4-yl)amino)methyl)phenyl)amino)-2-methyl-1-oxopropan-2-yl)acrylamide], the inhibition at 10 µM worked out at 93% and the half-inhibitory concentration (IC50) was in the range of 300 to 1000 nM. On to `C=CC(=O)N(C)C1(C(=O)Nc2cccc(CNc3nc(NC4CCOCC4)nc4c(C(C)C)cnn34)c2)CC1` [Compound 84, N-(3-(((8-isopropyl-2-((tetrahydro-2H-pyran-4-yl)amino)pyrazolo[1,5-a][1,3,5]triazin-4-yl)amino)methyl)phenyl)-1-(N-methylacrylamido)cyclopropane-1-carboxamide], for which the inhibition at 10 µM worked out at 97% and the IC50 was < 300 nM.

The inhibition is how much of the control response was suppressed. In general, IC50 refers to the concentration needed to halve the response being measured.
